Reference: patent US20220153732A1, “PROTEIN SECRETION INHIBITORS” (KEZAR LIFE SCIENCES, priority 2019, published 2022)
pEC50, pIC50: −log10 of the molar value. Read-outs that look alike come from different tables or passages of the source.

Tests used:
Assay type in all cases: cell-based
[1] = tested on: IL-2-FL/Gaussia Luciferase; experiment: Dox Induced IL2-FL-Gluc Assay
Summary of the method: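 Compounds were added together with doxycycline in DMSO/media and incubated at 37° C., 5% CO2. The cells were a stably selected line carrying IL-2-FL/Gaussia luciferase under T-REx inducible control. Structures drawn without stereochemistry were tested as stereoisomer mixtures.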

[2] = tested on: human multiple myeloma cell line NCI-H929; experiment: H929 Cell Viability Assay; conditions: 48 hr, NCI-H929 cells, Celltiter-Glo, read-out: 48 hr H929 Viability Celltiter-Glo: Mean EC50
Method: Plates were incubated at 37° C., 5% CO2 for 48 hours. After 48 hours, Celltiter-Glo® (Promega) was added to each well and luciferase signal was quantified using Tecan Infinite M1000 Pro for cell viability determination.
For chemical structures that include one or more stereoisomers, but are illustrated without indicating stereochemistry, the assay data refers to a mixture of stereoisomers.

[3] = tested on: human multiple myeloma cell line U266B1; experiment: U266 Cell Viability Assay; conditions: U-266, 48 hr, U266B1 cells, Celltiter-Glo, read-out: 48 hr U266 Viability Celltiter-Glo: Mean EC50
Summary of the method: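 Viability measured by CellTiter-Glo luciferase signal after 48 h compound exposure (37 °C, 5% CO2) of U266B1 cells in 384-well format. Where stereochemistry is not shown, data refer to the stereoisomer mixture.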

[4] = tested on: TNFα-FL/Gaussia Luciferase; experiment: Dox Induced TNFα-FL-Gluc Assay
Summary of the method: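 Compounds were added in doxycycline-containing DMSO/media to cells plated the previous day and incubated at 37° C under 5% CO2. These cells stably express a TNFα-FL/Gaussia luciferase cDNA whose expression is under T-REx (Dox-inducible) control, selected with Hygromycin and Blasticidin.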

[5] = tested on: PD1-ss+10aa/Gaussia Luciferase; experiment: Dox-Induced PD1-ss-Gluc Assay
Summary of the method: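 Compounds, diluted in DMSO/media with doxycycline, were added to cells plated a day earlier and kept at 37° C under 5% CO2. The cells stably express a Gaussia luciferase construct fused to PD1-ss+10aa, induced via the T-REx system. Unassigned stereochemistry means mixture data.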

[6] = tested on: HER3-ss+4aa/Gaussia Luciferase; experiment: Dox-Induced Her3-ss-Gluc Assay
Summary of the method: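 Compounds, diluted in DMSO/media containing doxycycline, were incubated at 37° C., 5% CO2 with cells seeded one day earlier. The cells stably express HER3-ss+4aa/Gaussia luciferase under T-REx control. Where no stereochemistry is shown, data refer to the mixture of stereoisomers.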

[7] = 24 hr doxycycline induction, 293FRT/TO cells, Gaussia luciferase signal; read-out: 24 hr Dox Inducible IL2FLGIuc 293FRT/TO: Mean IC50
[8] = 24 hr doxycycline induction, 293FRT/TO cells, Gaussia luciferase signal; read-out: 24 hr Dox Inducible TNFaFLGluc 293FRT/TO: Mean IC50
[9] = 24 hr doxycycline induction, 293FRT/TO cells, Gaussia luciferase signal; read-out: 24 hr Dox Inducible PD1ssGluc 293FRT/TO: Mean IC50
[10] = 24 hr doxycycline induction, 293FRT/TO cells, Gaussia luciferase signal; read-out: 24 hr Dox Inducible Her3(ss + 4)Gluc 293FRT/TO: Mean IC50

Structure (SMILES)	pIC50 [1, 7]	pEC50 [2]	pEC50 [3]	pIC50 [4, 8]	pIC50 [5, 9]	pIC50 [6, 10]	pIC50 ([1]; read-out: 24 hr Dox Inducible IL2FLGIuc 293FRT/TO: Mean IC50; 24 hr doxycycline induction, 293FRT/TO cells, Gaussia luciferase signal)	pIC50 ([4]; read-out: 24 hr Dox Inducible TNFaFLGluc 293FRT/TO: Mean IC50; 24 hr doxycycline induction, 293FRT/TO cells, Gaussia luciferase signal)	pIC50 ([5]; read-out: 24 hr Dox Inducible PD1ssGluc 293FRT/TO: Mean IC50; 24 hr doxycycline induction, 293FRT/TO cells, Gaussia luciferase signal)	pIC50 ([6]; read-out: 24 hr Dox Inducible Her3(ss + 4)Gluc 293FRT/TO: Mean IC50; 24 hr doxycycline induction, 293FRT/TO cells, Gaussia luciferase signal)
O=C(Nc1nc(/C=C/c2cccc(Cl)c2)cs1)c1cccn1Cc1ccncc1 [Compound A209, N-(4-(3-chlorostyryl)thiazol-2-yl)-1-(pyridin-4-ylmethyl)-1H-pyrrole-2-carboxamide]	5.91	< 4.60	< 4.60	5.32	6.63	6.24	–	–	–	–
CC(C)OC(C)(C)c1csc(NC(=O)c2cccn2CC2CC(=O)N(C)C2)n1 (stereo not drawn) [Compound A210, N-(4-(2-isopropoxypropan-2-yl)thiazol-2-yl)-1-((1-methyl-5-oxopyrrolidin-3-yl)methyl)-1H-pyrrole-2-carboxamide]	–	< 4.60	< 4.60	–	–	–	< 4.60	< 4.60	< 4.60	< 4.60
COc1cnccc1Cn1cccc1C(=O)Nc1nc(C(C)(C)OC(C)C)cs1 [Compound A211, N-(4-(2-isopropoxypropan-2-yl)thiazol-2-yl)-1-((3-methoxypyridin-4-yl)methyl)-1H-pyrrole-2-carboxamide]	5.08	< 4.60	< 4.60	< 4.60	5.00	< 4.60	–	–	–	–
CC(C)OC(C)(C)c1csc(NC(=O)c2cccn2Cc2ccncc2NCc2ccccc2)n1 [Compound A212, 1-((3-(benzylamino)pyridin-4-yl)methyl)-N-(4-(2-isopropoxypropan-2-yl)thiazol-2-yl)-1H-pyrrole-2-carboxamide]	5.34	5.52	5.43	< 4.60	5.32	5.38	–	–	–	–
O=C(Nc1nc(Cc2ccccc2)cs1)c1cccn1Cc1ccncc1NCc1ccccc1 [Compound A213, 1-((3-(benzylamino)pyridin-4-yl)methyl)-N-(4-benzylthiazol-2-yl)-1H-pyrrole-2-carboxamide]	5.22	4.86	4.75	< 4.60	4.92	5.31	–	–	–	–
CC(C)OC(C)(C)c1csc(NC(=O)c2cccn2Cc2ccncc2C(F)(F)F)n1 [Compound A214, N-(4-(2-isopropoxypropan-2-yl)thiazol-2-yl)-1-((3-(trifluoromethyl)pyridin-4-yl)methyl)-1H-pyrrole-2-carboxamide]	5.19	< 4.60	< 4.60	< 4.60	5.34	5.17	–	–	–	–
O=C(Nc1nc(C2CC2c2ccccc2)cs1)c1cccn1CCCc1ccncc1 [Compound A215, N-(4-((1R,2R)-2-phenylcyclopropypthiazol-2-yl)-1-(3-(pyridin-4-yl)propyl)-1H-pyrrole-2-carboxamide]	5.90	4.88	< 4.60	5.60	6.35	6.14	–	–	–	–
O=C(Nc1nc(-c2ccccc2)cs1)c1cccn1Cc1ccncc1 [Compound A216, N-(4-phenylthiazol-2-yl)-1-(pyridin-4-ylmethyl)-1H-pyrrole-2-carboxamide]	5.81	< 4.60	< 4.60	4.73	6.50	5.72	–	–	–	–
O=C(Nc1nc(/C=C/Cc2ccccc2)cs1)c1cccn1CCCc1ccncc1 [Compound A217, N-(4-(3-phenylprop-1-en-1-yl)thiazol-2-yl)-1-(3-(pyridin-4-yl)propyl)-1H-pyrrole-2-carboxamide]	6.03	< 4.67	< 4.60	5.45	6.61	6.37	–	–	–	–
O=C(Nc1nc(/C=C/Cc2ccccc2)cs1)c1cccn1Cc1ccncc1 [Compound A218, N-(4-(3-phenylprop-1-en-1-yl)thiazol-2-yl)-1-(pyridin-4-ylmethyl)-1H-pyrrole-2-carboxamide]	6.11	4.77	< 4.60	5.52	6.88	6.50	–	–	–	–
O=C(Nc1nc(/C=C/c2ccc(C(F)(F)F)cc2)cs1)c1cccn1Cc1ccncc1 [Compound A219, 1-(pyridin-4-ylmethyl)-N-(4-(4-(trifluoromethyl)styryl)thiazol-2-yl)-1H-pyrrole-2-carboxamide]	6.35	5.07	4.86	6.02	7.32	6.63	–	–	–	–
O=C(Nc1nc(/C=C/c2ccc(F)cc2)cs1)c1cccn1Cc1ccncc1 [Compound A220, N-(4-(4-fluorostyryl)thiazol-2-yl)-1-(pyridin-4-ylmethyl)-1H-pyrrole-2-carboxamide]	6.20	< 4.60	< 4.60	5.43	7.07	6.48	–	–	–	–
CC(C)OC(C)(C)c1csc(NC(=O)c2cccn2C/C=C/c2ccncc2)n1 [Compound A221, N-(4-(2-isopropoxypropan-2-yl)thiazol-2-yl)-1-(3-(pyridin-4-yl)allyl)-1H-pyrrole-2-carboxamide]	< 4.60	< 4.60	< 4.60	< 4.60	< 4.60	< 4.60	–	–	–	–
O=C(Nc1nc(/C=C/c2ccoc2)cs1)c1cccn1Cc1ccncc1 [Compound A222, N-(4-(2-(furan-3-yl)vinyl)thiazol-2-yl)-1-(pyridin-4-ylmethyl)-1H-pyrrole-2-carboxamide]	5.64	4.72	< 4.60	5.11	6.46	5.74	–	–	–	–
CC(=O)Nc1ccc(/C=C/c2csc(NC(=O)c3cccn3Cc3ccncc3)n2)cc1 [Compound A223, N-(4-(4-acetamidostyryl)thiazol-2-yl)-1-(pyridin-4-ylmethyl)-1H-pyrrole-2-carboxamide]	5.09	4.65	< 4.60	< 4.60	6.29	5.51	–	–	–	–
N#Cc1ccc(/C=C/c2csc(NC(=O)c3cccn3Cc3ccncc3)n2)cc1 [Compound A224, N-(4-(4-cyanostyryl)thiazol-2-yl)-1-(pyridin-4-ylmethyl)-1H-pyrrole-2-carboxamide]	< 4.60	4.69	< 4.60	< 4.60	6.85	6.53	–	–	–	–
CC(C)(CCc1ccccc1)c1csc(NC(=O)c2cccn2Cc2ccncc2)n1 [Compound A225, N-(4-(2-methyl-4-phenylbutan-2-yl)thiazol-2-yl)-1-(pyridin-4-ylmethyl)-1H-pyrrole-2-carboxamide]	6.31	5.05	< 4.60	5.42	6.49	6.25	–	–	–	–
CC(C)OC(C)(C)c1csc(NC(=O)c2cccn2CCOc2ccncc2)n1 [Compound A226, N-(4-(2-isopropoxypropan-2-yl)thiazol-2-yl)-1-(2-(pyridin-4-yloxy)ethyl)-1H-pyrrole-2-carboxamide]	6.49	4.92	< 4.60	5.15	6.52	6.37	–	–	–	–
O=C(Nc1nc(/C=C/c2ccc([N+](=O)[O-])cc2)cs1)c1cccn1Cc1ccncc1 [Compound A227]	6.20	5.05	< 4.67	5.72	7.28	6.42	–	–	–	–
CC(C)(COc1ccccc1)c1csc(NC(=O)c2cccn2Cc2ccncc2)n1 [Compound A228]	6.03	5.03	< 4.60	5.44	6.47	6.14	–	–	–	–
CN(C)c1ccc(/C=C/c2csc(NC(=O)c3cccn3Cc3ccncc3)n2)cc1 [Compound A229]	5.98	4.60	< 4.60	5.34	7.18	6.25	–	–	–	–
